Patent US9175030B2, “Derivatives of avicin D and methods of making and using thereof” (priority 2012, dated 2015)

Key:
[1] = test system: Raji; experiment: MTT growth inhibition, Raji; assay type: cell-based; details: Raji cells, 72 hrs
Description: (§1) The growth inhibitory effects of avicin D and oxetane derivative were measured using the MTT [3-(4,5-dimethylthiazol-2-yl)-2,5-diphenyl tetrazolium bromide] reduction assay as described in Haridas et al. (2001). Cells were cultured with varying concentrations of avicin D or oxetane in 96-well plates for 72 hrs at 37° C. At the end of 72 hrs, cells were stained with MTT for 2 hrs and then incubated with lysis buffer (20% SDS in 50% N,N-dimethylformamide) for another 6 hrs. Optical density at 570 nm was used as a measure of cell viability.
(§2) The cell lines 769P, A498, CAKI-1, and CAKI-2 are derived from primary human renal-cell cancers (RCC). A549 is a human lung adenocarcinoma epithelial cell line. B16F10 is a mouse melanoma cell line. BT474, BT 474 M1, BT549, MCF7, […], and ZR751 are breast cancer cell lines. CCRF-CEM, Jurkat, and MOLT4 are leukemia cell lines. HELA is cell line derived from cervical caner. HepG2 is a human hepatocellular liver carcinoma cell line. JeKo-1 is a mantle cell lymphoma (MCL) cell line. LnCAP is a cell line was established from a metastatic lesion of human prostatic adenocarcinoma. MM.1 and RPMI-8226 are human multiple myeloma cell lines. OVCAR3 and SKOV3 are ovarian cancer cell lines. Panc-1 is a pancreatic cancer cell line. PC3 is a prostate cancer cell line. Raji is a Burkitt's lymphoma cell line. RL is a non-Hodgkin's lymphoma cell line. […]

[2] = test system: PC3; experiment: MTT growth inhibition, PC3; assay type: cell-based; details: PC3 cells, 72 hrs
Description: as §1, §2

[3] = test system: A498; experiment: MTT growth inhibition, A498; assay type: cell-based, human; details: A498 cells, 72 hrs
Description: as §1, §2

[4] = test system: CCRF-CEM; experiment: MTT growth inhibition, CCRF-CEM; assay type: cell-based; details: CCRF-CEM cells, 72 hrs
Description: as §1, §2

[5] = test system: HEK293; experiment: MTT growth inhibition, HEK293; assay type: cell-based, human; details: HEK293 cells, 72 hrs
Description: as §1, §2

[6] = test system: 769P; experiment: MTT growth inhibition, 769P; assay type: cell-based, human; details: 769P cells, 72 hrs
Description: as §1, §2

[7] = test system: p(IL6-κB)350hu.IL6P-Luc in HEK 293T cells; experiment: TNF-induced NF-κB luciferase reporter in HEK 293T cells with and without GR (FIG. 3); assay type: cell-based
Excerpt: However, TNF-induced activation of p(IL6-κB)350hu.IL6P-Luc was inhibited by both avicin D and Dex in HEK 293T cells transfected with GR (FIG. 3). […] This observation supports the notion that avicins are not able to induce GR transactivation.

[8] = test system: BT474; experiment: MTT growth inhibition, BT474; assay type: cell-based; details: BT474 cells, 72 hrs
Description: as §1, §2

[9] = test system: Panc-1; experiment: MTT growth inhibition, Panc-1; assay type: cell-based; details: Panc-1 cells, 72 hrs
Description: as §1, §2

[10] = test system: HMLE cells expressing TWIST; experiment: Mammosphere formation, cancer stem cell model; assay type: cell-based, human; details: 60 nM, added day 7 and every 7th day, seen on day 21
Description: Human mammary epithelial cells were transfected with transcription factor TWIST acquiring mesenchymal stem cell-like traits, including the ability to form mammospheres. See Cano et al., 2000; Yang et al., Cell, 2004; Mani et al., 2008, which are all incorporated herein by reference.
HMLE cells expressing TWIST were plated at 100 cells/0.1 ml in 96-well plates. The cells were cultured in MEGM media supplemented with 20 ng/mL bFGF, 10 ng/mL EGF, 4 ug/mL heparin, and 1% methyl cellulose. Formation of spheres could be seen around day 7. Avicin D/Compound 8 (60 nM) was first added to the cultures on day 7 and subsequently every 7th day. […] See FIGS. 6A-D, which show mammospheres treated with 60 nM of Avicin D or Compound 8 for fourteen days. The ability of these agents to induce cell kill in both the tumor cell population as well as the stem-like cells enhances their potential for use as a cancer therapy.

[11] = test system: U2OS; experiment: MTT growth inhibition, U2OS; assay type: cell-based, human; details: U2OS cells, 72 hrs
Description: as §1, §2

[12] = test system: 3T3 L1; experiment: MTT growth inhibition, 3T3 L1; assay type: cell-based; details: 3T3 L1 fibroblast cells, 72 hrs
Description: as §1, §2

[13] = test system: U266; experiment: MTT growth inhibition, U266; assay type: cell-based; details: U266 cells, 72 hrs
Description: as §1, §2

[14] = test system: OVCAR3; experiment: MTT growth inhibition, OVCAR3; assay type: cell-based; details: OVCAR3 cells, 72 hrs
Description: as §1, §2

[15] = test system: 3T3-L1 cells; details: cited from earlier work
[16] = test system: MCF7; experiment: MTT growth inhibition, MCF7; assay type: cell-based; details: MCF7 cells, 72 hrs
Description: as §1, §2

[17] = test system: Hela; experiment: MTT growth inhibition, Hela; assay type: cell-based; details: Hela cells, 72 hrs
Description: as §1, §2

[18] = test system: MOLT4; experiment: MTT growth inhibition, MOLT4; assay type: cell-based; details: MOLT4 cells, 72 hrs
Description: as §1, §2

IC50 [1]: 1270 nM
IC50 [2]: 440 nM
IC50 [4]: 5500 nM
IC50 [8]: 2800 nM
IC50 [9]: 520 nM
IC50 [11]: 4400 nM
IC50 [13]: 300 nM
IC50 [14]: 1300 nM
IC50 [16]: 15200 nM
IC50 [17]: 13200 nM
IC50 [18]: 320 nM
Structure (SMILES): C=C[C@](C)(O)CC/C=C(\CO)C(=O)O[C@H]1[C@H](O)[C@@H](O)[C@H](O[C@@](C)(C=C)CC/C=C(\CO)C(=O)O[C@H]2C[C@]3(C(=O)O[C@@H]4O[C@H](CO)[C@@H](O)[C@H](O)[C@H]4O[C@@H]4O[C@@H](C)[C@H](O[C@@H]5O[C@@H](CO)[C@H](O)[C@H]5O)[C@@H](O[C@@H]5O[C@H](CO)[C@@H](O)[C@H](O)[C@H]5O)[C@H]4O)[C@H](O)C[C@]4(C)C(=CC[C@@H]5[C@@]6(C)CC[C@H](O[C@@H]7O[C@H](CO[C@@H]8O[C@H](C)[C@H](O)[C@H](O)[C@H]8O[C@@H]8OC[C@@H](O)[C@H](O)[C@H]8O)[C@@H](O)[C@H](O)[C@H]7NC(C)=O)C(C)(C)[C@@H]6CC[C@]54C)[C@@H]3CC2(C)C)O[C@@H]1C [Avicin D]
IC50 [3]: 440 nM
IC50 [5]: 6500 nM
IC50 [6]: 360 nM
TNF-induced activation of p(IL6-κB)350hu.IL6P-Luc ([7]; HEK 293T cells transfected with GR): inhibited
luciferase activity ([7]; wild type HEK 293T cells (no GR)): neither avicin D nor dexamethasone had an effect
development of mammospheres as measured by the size of the spheres [10]: appear to inhibit the development of these spheres
IC50 [12]: 3800 nM
adipogenesis [15]: inhibit adipogenesis
intracellular triglyceride level [15]: reduce intracellular triglyceride level in a dose-dependent manner
